Source: patent US10945932B2, “Prebiotic oral care compositions containing carboxylic acids” (COLGATE-PALMOLIVE COMPANY, priority 2013, dated 2021)
Where two headings read alike, the source gives them in different places.

How the values were obtained:
[1] = tested on: Actinomyces naeslundii; details: A naeslundii, BHI
Experimental: (§2) Late exponential growth phase liquid cultures were prepared by transferring the respective bacterium from blood agar plates to BHI and overnight incubation at 37° C. in an anaerobic atmosphere for A. viscosus, V. parvula, F. nucleatum, P. gingivalis, P. intermedia, T forsythia, A. naeslundii, and C. sputigena, and in a 5% CO2 environment for S. salivarius, S. sanguinis, S. mitis, A. actinomycetemcomitans, S. mutans, S. sobrinus and S. gordonii. Overnight cultures were transferred to BHI and adjusted to a concentration of 1×10^7 CFU/ml (colony forming units per ml) by measuring the optical density at 600 nm (OD600) (BioRad SmartSpec 3000). For each strain, 200 μl of the bacterial suspension was added to a 96-well plate containing 20 μl of the respective carboxylic acids. Final concentrations of the carboxylic acids were set to 5, 10, 20 and 25 μmol/ml. […] Plates were incubated as previously described.
(§3) For each combination of bacterium/carboxylic acid, and for each of their respective controls (i.e. the particular bacterium in the nutritionally rich medium with no carboxylic acid), the optical density was measured at 630 nm (OD630) at 0 h, 24 h and 48 h (Thermo Scientific Multiskan Ascent). Additionally, the OD630 for combinations of bacterium/carboxylic acid grown in a 5% CO2 environment were also measured every hour between 0 h and 9 h.
(§4) The experiment was carried out on three different days (thus providing 3 biological replicas) and on each day the experiment was carried out in quadruple (thus providing 4 technical replicas) for each combination of bacterium with carboxylic acid and for each control. For each day and for each combination, the average (mean) of the values obtained (as detailed above) for the four technical replicas was calculated to provide a single value for each combination on each day.

[2] = tested on: Porphyromonas gingivalis; details: P gingivalis, BHI
Experimental: as §2, §3, §4

[3] = tested on: Capnocytophaga sputigena; details: C sputigena, BHI
Experimental: as §2, §3, §4

[4] = tested on: Streptococcus gordonii; test: Metabolic activity, Biolog phenotype microarray; format: cell-based; details: S gordonii
[5] = tested on: Fusobacterium nucleatum; test: Metabolic activity, Biolog phenotype microarray; format: cell-based; details: F nucleatum
[6] = tested on: Streptococcus salivarius; test: Metabolic activity, Biolog phenotype microarray; format: cell-based; details: S salivarius
[7] = tested on: Streptococcus sobrinus; test: Metabolic activity, Biolog phenotype microarray; format: cell-based; details: S sobrinus
[8] = tested on: Actinomyces viscosus; test: Metabolic activity, Biolog phenotype microarray; format: cell-based; details: A viscosus
[9] = tested on: Actinomyces naeslundii; test: Metabolic activity, Biolog phenotype microarray; format: cell-based; details: A naeslundii
[10] = tested on: Streptococcus mitis; test: Metabolic activity, Biolog phenotype microarray; format: cell-based; details: S mitis
[11] = tested on: Porphyromonas gingivalis; test: Metabolic activity, Biolog phenotype microarray; format: cell-based; details: P gingivalis
[12] = tested on: Streptococcus mutans; test: Metabolic activity, Biolog phenotype microarray; format: cell-based; details: S mutans
[13] = tested on: Aggregatibacter actinomycetemcomitans; test: Metabolic activity, Biolog phenotype microarray; format: cell-based; details: A actinomycetemcomitans
[14] = tested on: Prevotella intermedia; test: Metabolic activity, Biolog phenotype microarray; format: cell-based; details: P intermedia
[15] = tested on: Streptococcus sanguinis; test: Metabolic activity, Biolog phenotype microarray; format: cell-based; details: S sanguinis
[16] = tested on: Veillonella parvula; test: Metabolic activity, Biolog phenotype microarray; format: cell-based; details: V parvula
[17] = tested on: Tannerella forsythia; test: Metabolic activity, Biolog phenotype microarray; format: cell-based; details: T forsythia
[18] = tested on: Capnocytophaga sputigena; test: Metabolic activity, Biolog phenotype microarray; format: cell-based; details: C sputigena
[19] = tested on: Fusobacterium nucleatum; test: Biofilm growth assay in BHI, crystal violet; format: cell-based; details: F nucleatum
How it was run: (§1)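 Overnight BHI cultures at 37° C, anaerobic for A. naeslundii and P. gingivalis and under 5% CO2 for S. sanguinis and S. gordonii, were grown as biofilms for 48 hrs. Biofilms were ethanol-fixed, stained with 1 weight % crystal violet and read at 630 nm, corrected against a 0.03 weight % chlorhexidine background control.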

[20] = tested on: Actinomyces viscosus; test: Biofilm growth assay in BHI, crystal violet; format: cell-based; details: A viscosus
How it was run: as §1

[21] = tested on: Porphyromonas gingivalis; test: Biofilm growth assay in BHI, crystal violet; format: cell-based; details: P gingivalis
How it was run: as §1

SMILES: O=C(O)CCC(=O)O [Succinic acid, succinic acid]
- extent of growth, maximal OD630 over 48 hr divided by maximal OD of control (control = 1) ([1]; 5 μmol/ml): 0.9975
- extent of growth, maximal OD630 over 48 hr divided by maximal OD of control (control = 1) ([1]; 10 μmol/ml): 0.5885
- extent of growth, maximal OD630 over 48 hr divided by maximal OD of control (control = 1) ([1]; 20 μmol/ml): 0.2228
- extent of growth, maximal OD630 over 48 hr divided by maximal OD of control (control = 1) ([1]; 25 μmol/ml): 0.1840
- extent of growth, maximal OD630 over 48 hr divided by maximal OD of control (control = 1) ([2]; 5 μmol/ml): 1.0091
- extent of growth, maximal OD630 over 48 hr divided by maximal OD of control (control = 1) ([2]; 10 μmol/ml): 0.8129
- extent of growth, maximal OD630 over 48 hr divided by maximal OD of control (control = 1) ([2]; 20 μmol/ml): 0.4103
- extent of growth, maximal OD630 over 48 hr divided by maximal OD of control (control = 1) ([2]; 25 μmol/ml): 0.4061
- extent of growth, maximal OD630 over 48 hr divided by maximal OD of control (control = 1) ([3]; 5 μmol/ml): 0.9743
- extent of growth, maximal OD630 over 48 hr divided by maximal OD of control (control = 1) ([3]; 10 μmol/ml): 0.7668
- extent of growth, maximal OD630 over 48 hr divided by maximal OD of control (control = 1) ([3]; 20 μmol/ml): 0.6198
- extent of growth, maximal OD630 over 48 hr divided by maximal OD of control (control = 1) ([3]; 25 μmol/ml): 0.4571
- metabolic activity, OD at 492 nm divided by OD of control (control = 1) ([4]; 24 hrs): 0.7960
- metabolic activity, OD at 492 nm divided by OD of control (control = 1) ([4]; 48 hrs): 0.8167
- metabolic activity, OD at 492 nm divided by OD of control (control = 1) ([5]; 24 hrs): 0.8508
- metabolic activity, OD at 492 nm divided by OD of control (control = 1) ([5]; 48 hrs): 0.8574
- metabolic activity, OD at 492 nm divided by OD of control (control = 1) ([6]; 24 hrs): 0.9019
- metabolic activity, OD at 492 nm divided by OD of control (control = 1) ([6]; 48 hrs): 0.8347
- metabolic activity, OD at 492 nm divided by OD of control (control = 1) ([7]; 24 hrs): 0.8265
- metabolic activity, OD at 492 nm divided by OD of control (control = 1) ([7]; 48 hrs): 0.8068
- metabolic activity, OD at 492 nm divided by OD of control (control = 1) ([8]; 24 hrs): 0.9752
- metabolic activity, OD at 492 nm divided by OD of control (control = 1) ([8]; 48 hrs): 1.0089
- metabolic activity, OD at 492 nm divided by OD of control (control = 1) ([9]; 24 hrs): 0.9767
- metabolic activity, OD at 492 nm divided by OD of control (control = 1) ([9]; 48 hrs): 0.9858
- metabolic activity, OD at 492 nm divided by OD of control (control = 1) ([10]; 24 hrs): 0.9268
- metabolic activity, OD at 492 nm divided by OD of control (control = 1) ([10]; 48 hrs): 0.8537
- metabolic activity, OD at 492 nm divided by OD of control (control = 1) ([11]; 24 hrs): 0.8726
- metabolic activity, OD at 492 nm divided by OD of control (control = 1) ([11]; 48 hrs): 0.9109
- metabolic activity, OD at 492 nm divided by OD of control (control = 1) ([12]; 24 hrs): 0.8991
- metabolic activity, OD at 492 nm divided by OD of control (control = 1) ([12]; 48 hrs): 0.8576
- metabolic activity, OD at 492 nm divided by OD of control (control = 1) ([13]; 24 hrs): 1.1066
- metabolic activity, OD at 492 nm divided by OD of control (control = 1) ([13]; 48 hrs): 1.2815
- metabolic activity, OD at 492 nm divided by OD of control (control = 1) ([14]; 24 hrs): 1.0677
- metabolic activity, OD at 492 nm divided by OD of control (control = 1) ([14]; 48 hrs): 1.1361
- metabolic activity, OD at 492 nm divided by OD of control (control = 1) ([15]; 24 hrs): 0.9046
- metabolic activity, OD at 492 nm divided by OD of control (control = 1) ([15]; 48 hrs): 0.8763
- metabolic activity, OD at 492 nm divided by OD of control (control = 1) ([16]; 24 hrs): 2.8247
- metabolic activity, OD at 492 nm divided by OD of control (control = 1) ([16]; 48 hrs): 2.2852
- metabolic activity, OD at 492 nm divided by OD of control (control = 1) ([17]; 24 hrs): 0.9307
- metabolic activity, OD at 492 nm divided by OD of control (control = 1) ([17]; 48 hrs): 0.9641
- metabolic activity, OD at 492 nm divided by OD of control (control = 1) ([18]; 24 hrs): 1.0400
- metabolic activity, OD at 492 nm divided by OD of control (control = 1) ([18]; 48 hrs): 1.0105
- biofilm growth, OD at 630 nm (crystal violet) at 48 hrs divided by OD of control (control = 1) ([19]; 5 μmol/ml): 2.7146
- biofilm growth, OD at 630 nm (crystal violet) at 48 hrs divided by OD of control (control = 1) ([19]; 10 μmol/ml): 5.3887
- biofilm growth, OD at 630 nm (crystal violet) at 48 hrs divided by OD of control (control = 1) ([19]; 20 μmol/ml): 0.5404
- biofilm growth, OD at 630 nm (crystal violet) at 48 hrs divided by OD of control (control = 1) ([19]; 25 μmol/ml): 0.1087
- biofilm growth, OD at 630 nm (crystal violet) at 48 hrs divided by OD of control (control = 1) ([20]; 5 μmol/ml): 0.3969
- biofilm growth, OD at 630 nm (crystal violet) at 48 hrs divided by OD of control (control = 1) ([20]; 10 μmol/ml): 0.3190
- biofilm growth, OD at 630 nm (crystal violet) at 48 hrs divided by OD of control (control = 1) ([20]; 20 μmol/ml): 0.0498
- biofilm growth, OD at 630 nm (crystal violet) at 48 hrs divided by OD of control (control = 1) ([20]; 25 μmol/ml): 0.0622
- biofilm growth, OD at 630 nm (crystal violet) at 48 hrs divided by OD of control (control = 1) ([21]; 5 μmol/ml): 1.0520
- biofilm growth, OD at 630 nm (crystal violet) at 48 hrs divided by OD of control (control = 1) ([21]; 10 μmol/ml): 1.0031
- biofilm growth, OD at 630 nm (crystal violet) at 48 hrs divided by OD of control (control = 1) ([21]; 20 μmol/ml): 0.1065
- biofilm growth, OD at 630 nm (crystal violet) at 48 hrs divided by OD of control (control = 1) ([21]; 25 μmol/ml): 0.1691
